Source: patent US20050129765A1, “Controlled release of topiramate in liquid dosage forms” (priority 2003, published 2005)

Experiments:
[1] = Drug solubility in various carriers; assay type: physicochemical
[2] = cited from earlier work

- solubility in carrier ([1]; 20-30% topiramate in 90/10, 80/20 or 70/30 PEG 400/Cremophor EL): completely soluble
- solubility in carrier ([1]; 45% topiramate in 100% of PEG400): completely soluble
Compound: CC1(C)O[C@@H]2[C@@H](CO[C@@]3(COS(N)(=O)=O)OC(C)(C)O[C@@H]23)O1 [topiramate, 2,3:4,5-di-O-isopropylidene-β-D-fructopyranose sulfamate]
- solubility (qualitative) ([2]; alkaline solutions containing sodium hydroxide or sodium phosphate, acetone, dimethylsulfoxide and ethanol): soluble
- solubility in water ([2]; in water): about 9.8 mg/ml
